In patent US8545834B2, “G-substrate for the treatment and prevention of parkinson's disease” (The McLean Hospital Corporation, priority 2007, dated 2013):

Tests used:
PP2A = PP2A activity assay (immunoprecipitated PP2A, phosphopeptide, Malachite Green); format: cell-based, human
Description: PP2A activity was measured in control BE(2)-M17 cells at various incubation times (t=0, 1, 2, 5 and 8 hr) after exposure to 50 μM 6-OHDA. […] Control, wild-type, and T123A G-substrate-expressing cells were then exposed to 50 μM 6-OHDA for 2 hours before measurement of PP2A activity.
PP2A activity was measured using a non-radioactive kit according to the manufacturer's instruction (Upstate Biotechnologies, Lake Placid, N.Y.). After 50 μM 6-OHDA exposure with various times, cells were harvested in 20 mM imidazole-HCl, 2 mM EDTA, 2 mM EGTA, pH7 with a protease inhibitor cocktail (Sigma). Protein concentrations of the lysates were measured using BCA assay (Pierce) and 500 μg of protein was immunoprecipitated using an anti-PP2A catalytic subunit antibody and protein A-Sepharose beads. Immunoprecipitated PP2A was then incubated with phosphopeptide (K-R-pT-I-R-R (SEQ ID NO: 8)) for 10 min at 37° C. Dephosphorylation of the phosphopeptide was assayed spectrophotometrically at 650 nm using Malachite Green.

BE(2)-M17 cells = test: In vitro protection assays (MTS cell viability, LDH release) against neurotoxins; format: cell-based, human; settings: for protection against 50 μM 6-OHDA exposure by PP2A inhibition (MTS cellular viability): BE(2)-M17 cells without elevated G-substrate, normalized to control
Description: Viability of the M17 cells was assessed following exposure to a variety of neurotoxins, each representing different aspects of PD pathology. 6-hydroxydopamine (6-OHDA) causes oxidative stress. MG-132 induces proteasome inhibition. And, MPP+ causes mitochondrial dysfunction by inhibiting Complex I. Cytotoxicity of M17 cells was determined using both cell viability assays and LDH release. G-substrate overexpression in M17 cells was confirmed by Western blot analysis (FIG. 3A) and by immunocytochemistry (FIG. 3B).
BE(2)-M17 cells were transduced with lentivirus expressing control or G-substrate with a multiplicity of infection 15. Cells were grown in Optimem™ (Invitrogen, Carlsbad, Calif.) supplemented with 10% heat-inactivated fetal calf serum (Hyclone, Logan, Utah), nonessential amino acid and sodium pyruvate. Cells were maintained at 37° C., in 5% CO2 humid atmosphere. For the bioassay, cells were plated in 96 well plates at 5000 per well. The next day, cells were treated with various concentrations of 6-OHDA (Sigma), MG-132 (Calbiochem) and MPP+ (Sigma) for 20 hrs. The supernatant was used to determine cytotoxicity using LDH release assay kit (Roche, Indianapolis, Ind.) and the cells remaining on the plate was used to determine cell viability using MTS based solution, CellTiter 96 AQueous One™ solution cell proliferation assay (Promega, Madison, Wis.).
Three different siRNAs for human G-substrate as described herein, a negative control siRNA, and a validated Akt siRNA (Ambion; Austin, Tex.) were used. Cells were plated in 96 well plates at 5000 per well with siRNAs and siPORT NeoFX transfection agent (Ambion, Austin, Tex.). After 48 hrs of incubation with siRNAs, each of the toxicants (6-OHDA, MG-132 or MPP+) were applied to the cells. Cell viability and cytotoxicity was measured after 20 hrs of toxin exposure.

VMAT2 = test: Western blot of VMAT2 expression in M17 cells; format: cell-based, human; settings: naïve M17 cells
Description: BE(2)-M17 cells were used to investigate the interaction between G-substrate and α-synuclein, a known risk factor and possible causative agent in Parkinson's disease. […] Likewise, VMAT2 expression was reduced in naïve M17 cells following the reduction in endogenous G-substrate using siRNA (FIG. 10C).
M17 cells transiently and stably overexpression α-synuclein were transfected using the G-substrate lentiviral vector described above.
The PP2A regulation of VMAT 2 was investigated in M17 cells. PP2A levels were reduced using RNAi. […] The effect of PP2A inhibition was not generalized to other dopaminergic markers tested.
Cells and tissue samples were collected from and suspended in lysis buffer containing: 50 mM Tris-HCl, 0.15 M NaCl, 0.32 M sucrose, 1.0 mM EDTA, and 1% NP-40. In addition, phosphatase inhibitors I and II (1:100) and protease inhibitors (1:100) were added fresh prior to cell lysis (Sigma-Aldrich, P2850, P5276, and P8340 respectively). Following cell lysis, the homogenate was centrifuged, a portion of the supernatant was reserved for protein determination (BCA Assay, Pierce, Rockford, Ill.) and the remaining was stored at −20° C. 20 μg (in vitro cell preps) and 50 μg (tissue dissections) of solubilized protein were mixed 1:1 with sample buffer and boiled for 5 min. The samples and molecular weight standards were separated using the Criterion precast 10% SDS-polyacrylamide gel system (Bio-Rad, Hercules, Calif.). After electrophoresis, the proteins were electrically transferred to PVDF membranes at 100 V for 30 min. After transfer, blots were incubated in Tris-buffered saline with 0.1% Tween 20 (TBS-T) containing 5% BSA. Subsequently, blots were incubated with the following antibodies at 4° C. overnight (1:1000 unless otherwise stated): phospho-Akt (ser473), phospho-GSK3β (ser9), phospho-erk1/2, and phospho-p38 (Cell Signaling Technologies, Danvers, Mass.). HRP-conjugated secondary antibodies were then applied and immunoreactive bands were visualized with chemiluminescence (Amersham Biosciences, Arlington Heights, Ill.) and exposed onto film. Immunoblots were then stripped and re-probed for the expression of the total protein (Cell Signaling) and beta-actin (1:10 000) (Abcam) to serve as a loading control. Optical density analysis (NIH image) was used to determine the relative abundance of protein in each sample. The optical densities of the phospho epitopes were standardized to their respective total proteins and this value was used in the statistical analyses.

A9 DA neurons = format: in vivo, rat; settings: rats, intra-striatal 6-OHDA
Description: Retrograde 6-OHDA lesioning within the striatum is a well-established method of creating progressive degeneration of A9 DA neurons. The loss of TH immunoreactivity reflects actual loss of DA neurons (Sauer, 1994).
The in vivo neuroprotective effects of G-substrate against 6-OHDA-induced toxicity was examined by injecting 6-OHDA into the corpus striatum of rats which previously had either G-substrate or control genes (empty vector or YFP) delivered to the midbrain using the lentivirus as described above. 6-OHDA induced approximately an 80% loss of TH-positive neurons in the midbrain (FIG. 12Q) and complete loss of TH immunoreactivity in the striatum (data not shown). The severity of the striatal insult in this paradigm precluded our ability to usefully measure protection of striatal nerve terminals. […] Furthermore, most of the surviving TH-positive neurons in lenti G-substrate-transduced rats were strongly G-substrate-positive (FIGS. 12G-12L).
Rats received two 2.75 μl stereotaxic injections of either lenti-empty vector+lenti-eGFP (n=19), lenti-G substrate+lenti-eGFP (n=19), or lenti-YFP (n=14) and delivered at a rate of 0.2 μl/min using microinfusion pumps (Stoelting Co, Wood Dale, Ill.) with 10 min wait times after each injection. Lenti-eGFP was added to each condition, excluding the YFP condition, to serve as an exogenous marker for surgical targeting (0.5 μl of the total 5.5 μl A volume). SN injection coordinates were as follows: site 1: AP −4.8, ML −2.0, DV −7.2; site 2: AP −5.5, ML −1.8, DV −7.2; and tooth bar set at −3.3. Virus titers (p24) were as follows: G substrate, 60 ng/μl; empty vector, 60 ng/μl; eGFP, 83 ng/μl; and YFP, 60 ng/μl.
Two weeks following lentiviral injection, animals (lenti-empty vector+lenti-eGFP (n=9), lenti-G substrate+lenti-eGFP (n=9), or lenti-YFP (n=14)) received three 2.5 μl stereotaxic injections of 3.0 μg/μl 6-OHDA (total dose=22.5 μg 6-OHDA) delivered at a rate of 0.5 μl/min and 5 min wait times after each injection. Striatum injection coordinates were as follows: site 1: AP +1.3, ML −2.8, DV −4.5; site 2: AP +0.2, ML, −3.0, DV −5.0; site 3: AP −0.6, ML −4.0, DV −5.5; and tooth bar set at −3.3. The lesion was allowed to progress for 3 weeks after which animals were sacrificed for post mortem analyses.
Brains were cut frozen in the coronal plane at a thickness of 40 μm on a sliding microtome and six series of sections were stored in cryoprotectant. Two full series of sections were processed for visualization of tyrosine hydroxylase (TH) via the biotin-labeled antibody procedure. Briefly, following several washes in a PBS solution containing 0.01% Triton X-100 (PBS-T), endogenous peroxidase was quenched in a 3% hydrogen peroxide solution and background staining was then inhibited in a 5% normal goat serum solution. […]

[1] = lentiviral overexpression in BE(2)-M17 cells, toxin 20 hrs, compared to control

T123A mutant G-substrate: mutant G-substrate with Thr to Ala point mutation at Thr 123 (T119A of human), overexpressed from a lentiviral vector
PP2A activity in G-substrate-expressing cells (PP2A; BE(2)-M17 cells exposed to 50 μM 6-OHDA for 2 hours, versus control cells): reduced compared to controls, but not reduced as much as observed in the wild-type G-substrate-expressing cells | protection against 6-OHDA and MG-132 compared to the wild-type (BE(2)-M17 cells; lentiviral overexpression in BE(2)-M17 cells): significantly less effective | protection against MPP+-induced toxicity (cell viability, LDH release) (BE(2)-M17 cells; lentiviral overexpression in BE(2)-M17 cells, toxin 20 hrs): neither wild-type nor T123A mutant G-substrate overexpression was protective | neuroprotection against 6-OHDA toxicity (cell viability, LDH release) (BE(2)-M17 cells; [1]): neuroprotective | neuroprotection against MG-132 toxicity (cell viability, LDH release) (BE(2)-M17 cells; [1]): neuroprotective

C=C1[C@@H](O)[C@@H]2O[C@]3(CC[C@H](/C=C/[C@@H](C)[C@@H]4CC(C)=C[C@@]5(O[C@H](C[C@@](C)(O)C(=O)O)CC[C@H]5O)O4)O3)CC[C@H]2O[C@@H]1[C@@H](O)C[C@H](C)[C@H]1O[C@@]2(CCCCO2)CC[C@H]1C [okadaic acid, reference compound]
VMAT2 expression (VMAT2): increased VMAT2 levels | protection against 50 μM 6-OHDA exposure by PP2A inhibition (MTS cellular viability) (BE(2)-M17 cells): none of these methods alone were protective

COC[C@@H]([C@H](O)[C@H](O)C(=O)NCC[C@H](C)c1nc(/C=C/C[C@@H]2O[C@]3(C[C@@H](O)[C@@H]2C)O[C@H]([C@H](C[C@H](O)[C@H](C)[C@H](O)[C@H](C)/C=C(C)/C(C)=C/C=C/C(C)=C\C#N)OC)[C@H](OP(=O)(O)O)C3(C)C)co1)N(C)C [calyculin A, reference compound]
VMAT2 expression (VMAT2): increased VMAT2 levels | protection against 50 μM 6-OHDA exposure by PP2A inhibition (MTS cellular viability) (BE(2)-M17 cells): none of these methods alone were protective

NCCc1cc(O)c(O)cc1O [6-OHDA, 6-hydroxydopamine, reference compound]
loss of TH-positive neurons in the midbrain (A9 DA neurons; 3 weeks): ~80% | loss of TH immunoreactivity in the striatum (A9 DA neurons; data not shown): complete loss | PP2A activity compared to basal activity (PP2A; control BE(2)-M17 cells, 50 μM 6-OHDA, t=1, 2, 8 hr (all times except t=5 hr)): significantly increased
